Active and inactive are the calls of the source. No cut-off for these calls is given here.
What was measured:
[1] = system: MIA PaCa-2; assay: Induction of G2/M phase cell cycle arrest in human MIA PaCa-2 cells assessed as sub G1 phase cells at 0.1 uM incubated for 24 hrs by PI/RNase staining based analysis (reference value: 4 +/- 2%); format: functional
[2] = system: MIA PaCa-2; assay: Induction of G2/M phase cell cycle arrest in human MIA PaCa-2 cells assessed as G1 phase cells at 0.1 uM incubated for 24 hrs by PI/RNase staining based analysis (reference value: 66 +/- 2%); format: functional
[3] = system: MIA PaCa-2; assay: Induction of G2/M phase cell cycle arrest in human MIA PaCa-2 cells assessed as S phase cells at 0.1 uM incubated for 24 hrs by PI/RNase staining based analysis (reference value: 11 +/- 1%); format: functional
[4] = system: MIA PaCa-2; assay: Induction of G2/M phase cell cycle arrest in human MIA PaCa-2 cells at 0.1 uM incubated for 24 hrs by PI/RNase staining based analysis (reference value: 20 +/- 1%); format: functional
[5] = system: MIA PaCa-2; assay: Induction of G2/M phase cell cycle arrest in human MIA PaCa-2 cells assessed as sub G1 phase cells at 0.5 uM incubated for 24 hrs by PI/RNase staining based analysis (reference value: 4 +/- 2%); format: functional
[6] = system: MIA PaCa-2; assay: Induction of G2/M phase cell cycle arrest in human MIA PaCa-2 cells assessed as G1 phase cells at 0.5 uM incubated for 24 hrs by PI/RNase staining based analysis (reference value: 66 +/- 2%); format: functional
[7] = system: MIA PaCa-2; assay: Induction of G2/M phase cell cycle arrest in human MIA PaCa-2 cells assessed as S phase cells at 0.5 uM incubated for 24 hrs by PI/RNase staining based analysis (reference value: 11 +/- 1%); format: functional
[8] = system: MIA PaCa-2; assay: Induction of G2/M phase cell cycle arrest in human MIA PaCa-2 cells at 0.5 uM incubated for 24 hrs by PI/RNase staining based analysis (reference value: 20 +/- 1%); format: functional
[9] = target: T1, Tubulin (Homo sapiens) (UniProt P68371+Q9H4B7+P0DPH7+P68366+Q13509+Q71U36+P04350+Q3ZCM7+P07437+P68363+Q9BQE3+Q6PEY2+Q13885+Q9BVA1+Q9BUF5); assay: Inhibition of tubulin (unknown origin) polymerization assessed as reduction microtubule formation at 10 uM by fluorometric analysis; format: protein-complex assay
[10] = system: HeLa; assay: Antiproliferative activity against human HeLa cells assessed as reduction in cell viability incubated for 48 hrs by MTT assay; format: functional, cell-based
[11] = system: HCT-116; assay: Antiproliferative activity against human HCT-116 cells assessed as reduction in cell viability incubated for 48 hrs by MTT assay; format: functional, cell-based; conditions: HCT-116, 48 h
[12] = system: A549; assay: Antiproliferative activity against human A549 cells assessed as reduction in cell viability incubated for 48 hrs by MTT assay; format: functional, cell-based; conditions: A549, 48 h
[13] = system: HepG2; assay: Antiproliferative activity against human HepG2 cells assessed as reduction in cell viability incubated for 48 hrs by MTT assay; format: functional, cell-based; conditions: HepG2, 48 h
[14] = system: WRL68; assay: Antiproliferative activity against human WRL68 cells assessed as reduction in cell viability incubated for 48 hrs by MTT assay; format: functional, cell-based; conditions: WRL68, 48 h
[15] = system: HT-29; assay: Antiproliferative activity against human HT-29 cells assessed as cell growth inhibition incubated for 72 hrs by MTT assay; format: functional
[16] = system: U-87 MG; assay: Antiproliferative activity against human U87 cells assessed as cell growth inhibition incubated for 72 hrs by MTT assay; format: functional, U-87MG ATCC
[17] = system: MCF7; assay: Antiproliferative activity against human MCF7 cells assessed as cell growth inhibition incubated for 72 hrs by MTT assay; format: functional
[18] = system: A2780; assay: Antiproliferative activity against human A2780 cells assessed as cell growth inhibition incubated for 72 hrs by MTT assay; format: functional
[19] = system: NCI-H460; assay: Antiproliferative activity against human NCI-H460 cells assessed as cell growth inhibition incubated for 72 hrs by MTT assay; format: functional
[20] = system: A-431; assay: Antiproliferative activity against human A-431 cells assessed as cell growth inhibition incubated for 72 hrs by MTT assay; format: functional
[21] = system: DU-145; assay: Antiproliferative activity against human DU-145 cells assessed as cell growth inhibition incubated for 72 hrs by MTT assay; format: functional
[22] = system: BE(2)-C; assay: Antiproliferative activity against human BE2C cells assessed as cell growth inhibition incubated for 72 hrs by MTT assay; format: functional
[23] = Antiproliferative activity against human SJG2 cells assessed as cell growth inhibition incubated for 72 hrs by MTT assay; format: functional; conditions: SJ-G2
[24] = system: MIA PaCa-2; assay: Antiproliferative activity against human MIA PaCa-2 cells assessed as cell growth inhibition incubated for 72 hrs by MTT assay; format: functional
[25] = Cytotoxicity against human MCF-10A cells assessed as cell growth inhibition incubated for 72 hrs by MTT assay; format: toxicity, cell-based
[26] = system: HT-29; assay: Antiproliferative activity against human HT-29 cells assessed as cell growth inhibition at 25 uM incubated for 72 hrs by MTT assay relative to control; format: functional
[27] = system: U-87 MG; assay: Antiproliferative activity against human U87 cells assessed as cell growth inhibition at 25 uM incubated for 72 hrs by MTT assay relative to control; format: functional, U-87MG ATCC
[28] = system: MCF7; assay: Antiproliferative activity against human MCF7 cells assessed as cell growth inhibition at 25 uM incubated for 72 hrs by MTT assay relative to control; format: functional
[29] = system: A2780; assay: Antiproliferative activity against human A2780 cells assessed as cell growth inhibition at 25 uM incubated for 72 hrs by MTT assay relative to control; format: functional
[30] = system: NCI-H460; assay: Antiproliferative activity against human NCI-H460 cells assessed as cell growth inhibition at 25 uM incubated for 72 hrs by MTT assay relative to control; format: functional
[31] = system: A-431; assay: Antiproliferative activity against human A-431 cells assessed as cell growth inhibition at 25 uM incubated for 72 hrs by MTT assay relative to control; format: functional
[32] = system: DU-145; assay: Antiproliferative activity against human DU-145 cells assessed as cell growth inhibition at 25 uM incubated for 72 hrs by MTT assay relative to control; format: functional
[33] = system: BE(2)-C; assay: Antiproliferative activity against human BE2C cells assessed as cell growth inhibition at 25 uM incubated for 72 hrs by MTT assay relative to control; format: functional
[34] = Antiproliferative activity against human SJG2 cells assessed as cell growth inhibition at 25 uM incubated for 72 hrs by MTT assay relative to control; format: functional; conditions: SJ-G2
[35] = system: MIA PaCa-2; assay: Antiproliferative activity against human MIA PaCa-2 cells assessed as cell growth inhibition at 25 uM incubated for 72 hrs by MTT assay relative to control; format: functional
[36] = Cytotoxicity against human MCF-10A cells assessed as cell growth inhibition at 25 uM incubated for 72 hrs by MTT assay relative to control; format: toxicity, cell-based
[37] = target: T1, Tubulin (Homo sapiens); assay: Inhibition of tubulin (unknown origin) polymerization assessed as reduction microtubule formation at 10 uM measured after approximately 1 hrs by fluorometric analysis; format: protein-complex assay
[38] = system: MIA PaCa-2; assay: Induction of G2/M phase cell cycle arrest in human MIA PaCa-2 cells assessed as sub G1 phase cells at 1.0 uM incubated for 24 hrs by PI/RNase staining based analysis (reference value: 4 +/- 2%); format: functional
[39] = system: MIA PaCa-2; assay: Induction of G2/M phase cell cycle arrest in human MIA PaCa-2 cells assessed as G1 phase cells at 1.0 uM incubated for 24 hrs by PI/RNase staining based analysis (reference value: 66 +/- 2%); format: functional
[40] = system: MIA PaCa-2; assay: Induction of G2/M phase cell cycle arrest in human MIA PaCa-2 cells assessed as S phase cells at 1.0 uM incubated for 24 hrs by PI/RNase staining based analysis (reference value: 11 +/- 1%); format: functional
[41] = system: MIA PaCa-2; assay: Induction of G2/M phase cell cycle arrest in human MIA PaCa-2 cells at 1.0 uM incubated for 24 hrs by PI/RNase staining based analysis (reference value: 20 +/- 1%); format: functional
[42] = system: MIA PaCa-2; assay: Induction of G2/M phase cell cycle arrest in human MIA PaCa-2 cells assessed as sub G1 phase cells at 5 uM incubated for 24 hrs by PI/RNase staining based analysis (reference value: 4 +/- 2%); format: functional
[43] = system: MIA PaCa-2; assay: Induction of G2/M phase cell cycle arrest in human MIA PaCa-2 cells assessed as G1 phase cells at 5 uM incubated for 24 hrs by PI/RNase staining based analysis (reference value: 66 +/- 2%); format: functional
[44] = system: MIA PaCa-2; assay: Induction of G2/M phase cell cycle arrest in human MIA PaCa-2 cells assessed as S phase cells at 5 uM incubated for 24 hrs by PI/RNase staining based analysis (reference value: 11 +/- 1%); format: functional
[45] = system: MIA PaCa-2; assay: Induction of G2/M phase cell cycle arrest in human MIA PaCa-2 cells at 5 uM incubated for 24 hrs by PI/RNase staining based analysis (reference value: 20 +/- 1%); format: functional

| SMILES | Activity [1] [%] | Activity [2] [%] | Activity [3] [%] | Activity [4] [%] | Activity [5] [%] | Activity [6] [%] | Activity [7] [%] | Activity [8] [%] | inhibition [9] | GI50 [15] [µM] | GI50 [16] [µM] | GI50 [17] [µM] | GI50 [18] [µM] | GI50 [19] [µM] | GI50 [20] [µM] | GI50 [21] [µM] | GI50 [22] [µM] | GI50 [23] [µM] | GI50 [24] [µM] | GI50 at 72 h [25] [µM] | other results |
| --- | --- | --- | --- | --- | --- | --- | --- | --- | --- | --- | --- | --- | --- | --- | --- | --- | --- | --- | --- | --- | --- |
| COC(=O)Nc1nc2cc(C(=O)c3cccs3)ccc2[nH]1 [NOCODAZOLE] | 21 | 34 | 8 | 37 | 14 | 16 | 9 | 60 | Active |  |  |  |  |  |  |  |  |  |  |  | IC50 [10]: 2.22 µM; IC50 [11]: 1.81 µM; IC50 [12]: 5.09 µM; IC50 [13]: 5.08 µM; IC50 [14]: 7.56 µM |
| O=C1NC(c2cccc3ccccc23)Nc2ccccc21 (stereo unspecified) | 4 | 63 | 11 | 22 | 17 | 17 | 11 | 55 |  | 0.02 | 0.22 | 0.075 | 0.031 | 0.037 | 0.02 | 0.089 | 0.027 | 0.05 | 0.048 | 0.04 | inhibition at 25 µM [26]: > 100%; inhibition at 25 µM [27]: 93%; inhibition at 25 µM [28]: > 100%; inhibition at 25 µM [29]: > 100%; inhibition at 25 µM [30]: > 100%; inhibition at 25 µM [31]: > 100%; inhibition at 25 µM [32]: > 100%; inhibition at 25 µM [33]: > 100%; inhibition at 25 µM [34]: > 100%; inhibition at 25 µM [35]: 94%; inhibition at 72 h, 25 µM [36]: > 100%; inhibition [37]: Active |
| COc1ccccc1/C=C/c1nc2ccccc2c(=O)[nH]1 |  |  |  |  |  |  |  |  | Active | 0.26 | 1.4 | 0.35 | 0.33 | 0.42 | 0.33 | 0.9 | 0.31 | 0.79 | 0.37 | 0.56 | inhibition at 25 µM [26]: > 100%; inhibition at 25 µM [27]: > 100%; inhibition at 25 µM [28]: > 100%; inhibition at 25 µM [29]: > 100%; inhibition at 25 µM [30]: > 100%; inhibition at 25 µM [31]: > 100%; inhibition at 25 µM [32]: > 100%; inhibition at 25 µM [33]: > 100%; inhibition at 25 µM [34]: > 100%; inhibition at 25 µM [35]: > 100%; inhibition at 72 h, 25 µM [36]: > 100%; Activity [38]: 5%; Activity [39]: 56%; Activity [40]: 12%; Activity [41]: 27%; Activity [42]: 6%; Activity [43]: 10%; Activity [44]: 6%; Activity [45]: 78% |

Reference: ChEMBL document CHEMBL5532698, “2,3-Dihydroquinazolin-4(1H)-ones and quinazolin-4(3H)-ones as broad-spectrum cytotoxic agents and their impact on tubulin polymerisation” (RSC Med Chem, 2024)
